{"source": "patent US10495560B2", "about": "“Method of screening drugs” (KOREA RESEARCH INSTITUTE OF STANDARDS AND SCIENCE, priority 2015, dated 2019)", "key": {"[1]": {"tested_on": "ARPE-19 human retinal epithelial cells", "test": "Blind test: screening of drugs by capacitance of the cell layer", "format": "cell-based", "protocol": "After culturing ARPE-19 (retinal pigmented epithelium, American Type Culture Collection (ATCC), ATCC® CRL-2302™), which is human retinal epithelial cells, instead of bEND.3 similarly to the case of using bEND.3, the cultured ARPE-19 was seeded in the same sensor as that used at the time of measuring bEND.3 so that coverage was 100%. Then, stabilization (fixation) was performed under the same conditions and time as those at the time of stabilizing bEND.3.\nAfter the cells were cultured for stabilization for 24 hours, the culture medium was exchanged.\nAs the exchanged medium, a reference culture medium containing tumor necrosis factor-alpha (TNF-α, R&D system, 210-TA-020/CF, 10 ng/ml) or a reference culture medium containing tumor necrosis factor-alpha (TNF-α, R&D system, 210-TA-020/CF 10 ng/ml) and TNF-α antibody (Human TNF-alpha MAb, R&D system, MAB610, 2 μg/ml) was prepared. In this case, as the reference culture medium, DMEM:F12 containing 1 vol % penicillin-streptomycin (Gibco) was used similarly to the case of using bEND.3.\nAfter stabilization was performed, medium exchange was randomly performed on each well using the prepared culture media. In this case, medium exchange was performed on a well (reference sample) at a predetermined position using a pure reference culture medium not containing TNF-α or TNF-α antibody, such that a frequency-dependent reference capacitance value at each measurement time was also simultaneously obtained.\nCapacitance was measured under the same conditions and the same time interval as those in the case of using bEND.3.\nAfter measurement was performed, in each well, in the case in which an absolute value of an alpha value at a time point (t=50 h based on stabilization) after 26 hours of medium exchange is smaller than an absolute value of a reference alpha value at the same time point, the drug was screened as a drug increasing paracellular permeability. […]"}, "[2]": {"tested_on": "tight junction proteins (ZO-1) in ARPE-19 cells", "test": "Immunocytochemistry (ZO-1 and DAPI staining) after the blind test", "format": "cell-based, human", "conditions": "FIG. 9", "protocol": "After performing the screening, as described above, fluorescent staining (using ZO-1 and DAPI) was performed on the endothelial cell layer fixed between two electrodes using immunocytochemistry, and then the endothelial cell layer was observed. FIG. 9A illustrates results of the reference sample, FIG. 9B illustrates results of the sample of which the medium was exchanged with the medium containing TNF-α, and FIG. 9C illustrates results of the sample of which the medium was exchanged with the medium containing both of TNF-α and TNF-α antibody."}}}
{"substance": "TNF-α", "values": [{"measurement": "standardized capacitance value", "setting": "[1]; 100 Hz, standardized to start of stabilization, 48 hours after medium exchange (t=72 h), reference sample 1.44", "result": 1.31}, {"measurement": "time for which the standardized capacitance value was continuously decreased", "setting": "[1]; 100 Hz, based on a time point (t=34 h) after 10 hours of medium exchange", "result": 48, "unit": "h"}, {"measurement": "screening result (drug increasing paracellular permeability)", "setting": "[1]; TNF-α 10 ng/ml, three independent criteria (alpha value at 26 h, standardized capacitance at 48 h, continuous decrease at 100 Hz)", "result": "screened as wells contacting the drug increasing paracellular permeability"}, {"measurement": "alignment of tight junction proteins", "setting": "[2]", "result": "disturbed"}]}
